Test results reported in patent US12492181B2, “Gem-disubstituted piperidine melanocortin subtype-2 receptor (MC2R) antagonists and uses thereof” (Crinetics Pharmaceuticals, Inc., priority 2019, dated 2025).

target: T1, hMC2 receptor (crude hMC2R membranes from CRE-bla-CHO-K1 cells stably expressing hMC2 receptor and hMRAP accessory protein) (Homo sapiens, UniProt Q01718); experiment: hMC2 membrane binding assay ([125I]ACTH (1-39) Tyr23, SPA); settings: displacement of 0.2 nM [125I]ACTH (1-39) Tyr23 from hMC2R membranes, 1.5 hours at room temperature; read-out: MC2R binding potency
T1 construct: crude membrane fractions
In short: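 Ki values come from non-linear regression of SPA scintillation counts, with compounds displacing [125I]ACTH(1-39) Tyr23. Membranes come from CRE-bla-CHO-K1 cells stably expressing hMC2 receptor together with hMRAP. They are preincubated with WGA-coated PVT SPA beads in 50 mM HEPES pH 7.4 with 0.20% BSA, Mg2+, Ca2+ and protease inhibitors.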

T1 sequence (Q01718 whole entry): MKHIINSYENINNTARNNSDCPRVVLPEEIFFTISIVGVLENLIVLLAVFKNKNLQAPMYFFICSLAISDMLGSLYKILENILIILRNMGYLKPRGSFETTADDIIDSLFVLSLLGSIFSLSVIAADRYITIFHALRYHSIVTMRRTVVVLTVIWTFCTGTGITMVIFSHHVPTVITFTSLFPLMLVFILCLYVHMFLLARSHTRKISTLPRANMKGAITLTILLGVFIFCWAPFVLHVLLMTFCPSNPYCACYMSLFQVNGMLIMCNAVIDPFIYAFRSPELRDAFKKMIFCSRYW
T1 sequence (Q8TCY5 whole entry partner): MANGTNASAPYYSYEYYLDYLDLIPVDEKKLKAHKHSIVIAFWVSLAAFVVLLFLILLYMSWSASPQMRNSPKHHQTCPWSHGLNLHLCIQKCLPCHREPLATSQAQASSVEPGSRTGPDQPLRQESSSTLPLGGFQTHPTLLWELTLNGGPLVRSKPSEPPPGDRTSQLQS

Question: `CCOc1ncccc1-c1ccc(C2(C(=O)NCCN)CCN(c3ccc(C(F)(F)F)cc3C#N)CC2)cc1` [Compound 1-3, N-(2-aminoethyl)-1-[2-cyano-4-(trifluoromethyl)phenyl]-4-[4-(2-ethoxypyridin-3-yl)phenyl]piperidine-4-carboxamide] was tested. Which Ki did it give?
Answer: 0.01 to 0.1 µM

Question: `COc1ncc(F)cc1-c1ncc(C2(C(=O)N[C@H]3CCN(C)C3)CCN(c3ccc(C(F)(F)F)cc3C#N)CC2)cc1F` [Compound 1-209, 1-[2-cyano-4-(trifluoromethyl)phenyl]-4-{3,5′-difluoro-2′-methoxy-[2,3′-bipyridin]-5-yl}-N-[(3S)-1-methylpyrrolidin-3-yl]piperidine-4-carboxamide] was tested. Which Ki did it give?
Answer: < 0.01 µM

Question: With `CCOc1ccccc1-c1ccc(C2(C(=O)N[C@H]3CCN(C)C3)CCN(c3ccc(C(F)(F)F)cc3C#N)CC2)cn1` [Compound 1-30, 1-[2-cyano-4-(trifluoromethyl)phenyl]-4-[6-(2-ethoxyphenyl)pyridin-3-yl]-N-[(3S)-1-methylpyrrolidin-3-yl]piperidine-4-carboxamide] as the compound, how does the Ki read?
Answer: < 0.01 µM

Question: Which Ki does the source give for `CCOc1ncccc1-c1ccc(C2(C(=O)NC3CN(C)C3)CCN(c3ccc(C(F)(F)F)cc3C#N)CC2)nn1` [Compound 1-140, 1-[2-cyano-4-(trifluoromethyl)phenyl]-4-[6-(2-ethoxypyridin-3-yl)pyridazin-3-yl]-N-(1-methylazetidin-3-yl)piperidine-4-carboxamide] here?
Answer: < 0.01 µM

Question: `Cn1cccc1-c1ccc(C2(C(=O)NC[C@@H]3CCN3)CCN(c3ccc(C(F)(F)F)cc3C#N)CC2)cn1` [Compound 1-235, N-{[(2S)-azetidin-2-yl]methyl}-1-[2-cyano-4-(trifluoromethyl)phenyl]-4-[6-(1-methyl-1H-pyrrol-2-yl)pyridin-3-yl]piperidine-4-carboxamide] was tested. Which Ki did it give?
Answer: 0.01 to 0.1 µM

Question: With `CNC[C@H](C)NC(=O)C1(c2ccc(-c3cccnc3OC)nc2)CCN(c2ccc(C(F)(F)F)cc2F)CC1` [Compound 1-306, 1-[2-fluoro-4-(trifluoromethyl)phenyl]-4-{2′-methoxy-[2,3′-bipyridin]-5-yl}-N-[(2S)-1-(methylamino)propan-2-yl]piperidine-4-carboxamide] as the compound, how does the Ki read?
Answer: < 0.01 µM

Question: For `CCOc1ncccc1-c1ccc(C2(C(=O)N[C@H]3CCN(C)C3)CCN(c3ccc(C(F)(F)F)cn3)CC2)cn1` [Compound 1-35, 4-{2′-ethoxy-[2,3′-bipyridin]-5-yl}-N-[(3S)-1-methylpyrrolidin-3-yl]-1-[5-(trifluoromethyl)pyridin-2-yl]piperidine-4-carboxamide], which Ki is on record?
Answer: < 0.01 µM

Question: How did the Ki turn out when `CCOc1ncccc1-c1ccc(C2(C(=O)NC[C@H](N)CO)CCN(c3ccc(C(F)(F)F)cc3C#N)CC2)cn1` [Compound 1-28, N-[(2S)-2-amino-3-hydroxypropyl]-1-[2-cyano-4-(trifluoromethyl)phenyl]-4-{2′-ethoxy-[2,3′-bipyridin]-5-yl}piperidine-4-carboxamide] was run?
Answer: < 0.01 µM

Question: Which Ki does the source give for `CN1CC[C@H](NC(=O)C2(c3ccc(-c4ncoc4C4CC4)nc3)CCN(c3ccc(C(F)(F)F)cc3C#N)CC2)C1` [Compound 1-182, 1-[2-cyano-4-(trifluoromethyl)phenyl]-4-[6-(5-cyclopropyl-1,3-oxazol-4-yl)pyridin-3-yl]-N-[(3S)-1-methylpyrrolidin-3-yl]piperidine-4-carboxamide] here?
Answer: 0.01 to 0.1 µM

Question: Which Ki does the source give for `CCOc1ncccc1-c1ccc(C2(C(=O)NC[C@@H](CO)N(C)C)CCN(c3ccc(C(F)(F)F)cc3C#N)CC2)cn1` [Compound 1-48, 1-[2-cyano-4-(trifluoromethyl)phenyl]-N-[(2S)-2-(dimethylamino)-3-hydroxypropyl]-4-{2′-ethoxy-[2,3′-bipyridin]-5-yl}piperidine-4-carboxamide] here?
Answer: < 0.01 µM

Question: How did the Ki turn out when `CO[C@@H]1CN(C)C[C@H]1NC(=O)C1(c2ccc(-c3cccn3C)nc2)CCN(c2ccc(C(F)(F)F)cc2C#N)CC1` (racemic) [Compound 1-268, rac-1-[2-cyano-4-(trifluoromethyl)phenyl]-N-[(3R,4R)-4-methoxy-1-methylpyrrolidin-3-yl]-4-[6-(1-methyl-1H-pyrrol-2-yl)pyridin-3-yl]piperidine-4-carboxamide] was run?
Answer: < 0.01 µM

Question: With `CN1CC[C@H](NC(=O)C2(c3ccc(-c4cccn4C)nc3)CCN(c3ccc(C(F)(F)F)cc3C#N)CC2)C1` [Compound 1-100, 1-[2-cyano-4-(trifluoromethyl)phenyl]-4-[6-(1-methyl-1H-pyrrol-2-yl)pyridin-3-yl]-N-[(3S)-1-methylpyrrolidin-3-yl]piperidine-4-carboxamide] as the compound, how does the Ki read?
Answer: < 0.01 µM

Question: For `CN1CC[C@H](NC(=O)C2(c3ccc(-c4ccccc4C(F)F)nc3)CCN(c3ccc(C(F)(F)F)cc3C#N)CC2)C1` [Compound 1-151, 1-[2-cyano-4-(trifluoromethyl)phenyl]-4-{6-[2-(difluoromethyl)phenyl]pyridin-3-yl}-N-[(3S)-1-methylpyrrolidin-3-yl]piperidine-4-carboxamide], which Ki is on record?
Answer: < 0.01 µM

Question: `CCOc1ncccc1-c1ccc(C2(C(=O)N[C@H]3CCN(C)C3)CCN(c3ccc(C(C)=O)cc3C#N)CC2)cn1` [Compound 1-36, 1-(4-acetyl-2-cyanophenyl)-4-{2′-ethoxy-[2,3′-bipyridin]-5-yl}-N-[(3S)-1-methylpyrrolidin-3-yl]piperidine-4-carboxamide] was tested. Which Ki did it give?
Answer: < 0.01 µM

Question: With `CN1CC[C@H](NC(=O)C2(c3ccc(-c4cccn4C)nn3)CCN(c3ccc(C(F)(F)F)cc3F)CC2)C1` [Compound 1-171, 1-[2-fluoro-4-(trifluoromethyl)phenyl]-4-[6-(1-methyl-1H-pyrrol-2-yl)pyridazin-3-yl]-N-[(3S)-1-methylpyrrolidin-3-yl]piperidine-4-carboxamide] as the compound, how does the Ki read?
Answer: < 0.01 µM

Question: With `C[C@@H](CN(C)C)NC(=O)C1(c2cnc(-c3cccn3C)c(F)c2)CCN(c2ccc(C(F)(F)F)cc2C#N)CC1` [Compound 1-324, 1-[2-cyano-4-(trifluoromethyl)phenyl]-N-[(2S)-1-(dimethylamino)propan-2-yl]-4-[5-fluoro-6-(1-methyl-1H-pyrrol-2-yl)pyridin-3-yl]piperidine-4-carboxamide] as the compound, how does the Ki read?
Answer: < 0.01 µM

Question: `CN1CC[C@H](OC(=O)NC2(c3ccc(-c4cccn4C)nc3)CCN(c3ccc(C(F)(F)F)cc3C#N)CC2)C1` [Compound 2-42, (3S)-1-methylpyrrolidin-3-yl N-{1-[2-cyano-4-(trifluoromethyl)phenyl]-4-[6-(1-methyl-1H-pyrrol-2-yl)pyridin-3-yl]piperidin-4-yl}carbamate] was tested. Which Ki did it give?
Answer: < 0.01 µM

Question: Which Ki does the source give for `COc1ccc(F)cc1-c1ccc(C2(C(=O)N[C@H]3CCN(C)C3)CCN(c3ccc(C(F)(F)F)cc3C#N)CC2)cn1` [Compound 1-102, 1-[2-cyano-4-(trifluoromethyl)phenyl]-4-[6-(5-fluoro-2-methoxyphenyl)pyridin-3-yl]-N-[(3S)-1-methylpyrrolidin-3-yl]piperidine-4-carboxamide] here?
Answer: < 0.01 µM

Question: For `CN1C[C@H](F)C[C@H]1CNC(=O)C1(c2ccc(-c3cccn3C)nc2)CCN(c2ccc(C(F)(F)F)cc2C#N)CC1` [Compound 1-278, 1-[2-cyano-4-(trifluoromethyl)phenyl]-N-{[(2S,4R)-4-fluoro-1-methylpyrrolidin-2-yl]methyl}-4-[6-(1-methyl-1H-pyrrol-2-yl)pyridin-3-yl]piperidine-4-carboxamide], which Ki is on record?
Answer: < 0.01 µM

Question: For `CCOc1ccccc1-c1ccc(C2(C(=O)N[C@H]3CCN(C)C3)CCN(c3ccc(Cl)cc3C#N)CC2)cn1` [Compound 1-90, 1-(4-chloro-2-cyanophenyl)-4-[6-(2-ethoxyphenyl)pyridin-3-yl]-N-[(3S)-1-methylpyrrolidin-3-yl]piperidine-4-carboxamide], which Ki is on record?
Answer: < 0.01 µM

Question: For `COc1ccccc1-c1ncc(C2(NC(=O)N[C@@H]3CCN(C)C3)CCN(c3ccc(C(F)(F)F)cc3C#N)CC2)cc1F` [Compound 2-52, 1-{1-[2-cyano-4-(trifluoromethyl)phenyl]-4-[5-fluoro-6-(2-methoxyphenyl)pyridin-3-yl]piperidin-4-yl}-3-[(3R)-1-methylpyrrolidin-3-yl]urea], which Ki is on record?
Answer: < 0.01 µM

Question: Which Ki does the source give for `COc1ccccc1-c1ccc(C2(C(=O)NC[C@@H]3C[C@H](F)CN3C)CCN(c3ccc(C(F)(F)F)cc3C#N)CC2)cn1` [Compound 1-249, 1-[2-cyano-4-(trifluoromethyl)phenyl]-N-{[(2S,4S)-4-fluoro-1-methylpyrrolidin-2-yl]methyl}-4-[6-(2-methoxyphenyl)pyridin-3-yl]piperidine-4-carboxamide] here?
Answer: < 0.01 µM

Question: “(3R)-1-methylpyrrolidin-3-yl N-{1-[2-cyano-4-(trifluoromethyl)phenyl]-4-{2′-ethoxy-[2,3′-bipyridin]-5-yl}piperidin-4-yl}carbamate [Compound 2-22]” was tested. Which Ki did it give?
Answer: < 0.01 µM

Question: `CCOc1ccccc1-c1ccc(C2(NC(=O)CN(C)C)CCN(c3ccc(Cl)cc3C#N)CC2)cn1` [Compound 2-31, N-[1-(4-chloro-2-cyanophenyl)-4-[6-(2-ethoxyphenyl)pyridin-3-yl]piperidin-4-yl]-2-(dimethylamino)acetamide] was tested. Which Ki did it give?
Answer: < 0.01 µM

Question: With `CCOc1ncccc1-c1ccc(C2(C(=O)N[C@@H]3CN4CCC3CC4)CCN(c3ccc(C(F)(F)F)cc3C#N)CC2)cn1` [Compound 1-20, N-[(3S)-1-azabicyclo[2.2.2]octan-3-yl]-1-[2-cyano-4-(trifluoromethyl)phenyl]-4-{2′-ethoxy-[2,3′-bipyridin]-5-yl}piperidine-4-carboxamide] as the compound, how does the Ki read?
Answer: < 0.01 µM

Question: `CN1CC[C@H](NC(=O)C2(c3cnc(-c4cccn4C)c(F)c3)CCN(c3ccc(Cl)cc3C#N)CC2)C1` [Compound 1-163, 1-(4-chloro-2-cyanophenyl)-4-[5-fluoro-6-(1-methyl-1H-pyrrol-2-yl)pyridin-3-yl]-N-[(3S)-1-methylpyrrolidin-3-yl]piperidine-4-carboxamide] was tested. Which Ki did it give?
Answer: < 0.01 µM

Question: Which Ki does the source give for `CCOc1ncccc1-c1ccc(C2(C(=O)N[C@H]3CCN(C)C3)CCN(c3ccc(C(F)(F)F)cc3Cl)CC2)cn1` [Compound 1-141, 1-[2-chloro-4-(trifluoromethyl)phenyl]-4-{2′-ethoxy-[2,3′-bipyridin]-5-yl}-N-[(3S)-1-methylpyrrolidin-3-yl]piperidine-4-carboxamide] here?
Answer: < 0.01 µM
